In BindingDB's records for doi:10.1021/jm00378a002 (1985) one finds Ki data, which are given here for one compound.

A word on the Ki: it is a measure of affinity in units of concentration, obtained from inhibition or displacement. A low value points to higher affinity.

The target in the test is uridine-cytidine kinase (Mus musculus). Nature of the test: Binding affinity to uridine kinase from L1210. was determined from the dixon plot.

Turning to `O=c1ccn([C@@H]2C=C(CO)[C@@H](O)[C@H]2O)c(=O)[nH]1` [1-(4,5-Dihydroxy-3-hydroxymethyl-cyclopent-2-enyl)-4-hydroxy-1H-pyrimidin-2-one], the Ki is 230 µM.
